In paper PMC8002452, “Molecular Basis of AmpC β-Lactamase Induction by Avibactam in Pseudomonas aeruginosa: PBP Occupancy, Live Cell Binding Dynamics and Impact on Resistant Clinical Isolates Harboring PDC-X Variants” (International Journal of Molecular Sciences, 2021):

Tests used:
PBP4 = PBP4 (Pseudomonas aeruginosa, UniProt Q9HZG1); experiment: Isolated PBP-containing membranes time-course binding assay; design: species or system P. aeruginosa PAO1; conditions: isolated PAO1 membranes, 4 µg/mL avibactam, 15-60 min; read-out: PBP4 total fraction bound
Chain of PBP4 (Q9HZG1 entry or part of it): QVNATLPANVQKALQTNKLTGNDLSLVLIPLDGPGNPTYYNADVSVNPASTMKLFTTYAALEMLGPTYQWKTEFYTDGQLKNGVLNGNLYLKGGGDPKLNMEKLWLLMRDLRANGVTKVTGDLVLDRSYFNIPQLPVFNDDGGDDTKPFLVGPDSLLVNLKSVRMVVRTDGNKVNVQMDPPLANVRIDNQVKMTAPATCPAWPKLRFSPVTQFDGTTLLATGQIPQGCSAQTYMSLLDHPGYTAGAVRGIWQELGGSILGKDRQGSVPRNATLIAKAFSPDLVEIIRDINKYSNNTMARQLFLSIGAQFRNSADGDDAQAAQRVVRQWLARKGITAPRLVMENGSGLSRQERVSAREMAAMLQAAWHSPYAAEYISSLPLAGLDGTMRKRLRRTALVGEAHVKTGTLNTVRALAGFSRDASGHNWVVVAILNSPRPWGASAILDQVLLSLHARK
Experimental: (§1) Figure 2 Time-course of intact cells and isolated PBP-binding assay. P. aeruginosa PAO1 cultures (a) and isolated PBP-containing membrane preparations (b) were incubated for 15, 30 and 60 min in the presence of 4 µg/mL avibactam (AVI). After isolating PBP-containing membranes, preparations were labeled with 25 µM bocillin FL. The graphs represent the PBP fraction unbound relative to each time control over time. The mean PBP fraction unbound values from at least three independent experiments ± standard deviations are shown.
(§2) In parallel to the aforementioned assay, we performed analogous experiments in which isolated PBP-containing membrane preparations instead of intact cells were pre-exposed to avibactam. Briefly, membrane preparations containing PBPs were obtained by following previously described protocols and were incubated for 15, 30 and 60 min at 37 °C in the presence of 4 µg/mL avibactam and were afterwards labeled with bocillin FL (25 μM). Determination of the PBP fraction unbound was performed as described in the above section.

PBP5/6 = PBP5/6 (Pseudomonas aeruginosa, UniProt G3XD74); experiment: as above; design: species or system P. aeruginosa PAO1; conditions: isolated PAO1 membranes, 4 µg/mL avibactam, 15-60 min; read-out: PBP5/6 total fraction bound
Chain of PBP5/6 (G3XD74 entry or part of it): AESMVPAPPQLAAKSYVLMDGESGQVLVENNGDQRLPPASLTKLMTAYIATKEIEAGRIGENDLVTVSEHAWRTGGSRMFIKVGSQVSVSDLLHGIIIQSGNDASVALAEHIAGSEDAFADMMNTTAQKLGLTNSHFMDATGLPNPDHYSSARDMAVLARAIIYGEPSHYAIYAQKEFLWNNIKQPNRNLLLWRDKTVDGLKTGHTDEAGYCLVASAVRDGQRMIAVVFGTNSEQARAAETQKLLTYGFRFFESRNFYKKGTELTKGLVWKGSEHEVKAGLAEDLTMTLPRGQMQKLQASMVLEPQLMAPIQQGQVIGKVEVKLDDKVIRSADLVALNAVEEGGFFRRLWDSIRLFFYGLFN
Experimental: as §1, §2

[1] = system: ampC mRNA in 101-E5 (CAZ/AVI-sensitive ST175 clinical isolate); experiment: qRT-PCR quantification of AmpC induction; assay type: cell-based, P. aeruginosa; conditions: IPM 8, FOX 64, AVI 16 µg/mL, relative to strain basal t=0
Experimental: (§3) Samples were taken at 0, 30 and 180 min. Total RNA was extracted with the RNeasy Mini Kit (Qiagen, Hilden, Germany) and treated with TURBO DNase (Thermo Fisher Scientific, Waltham, MA, USA) to remove contaminating DNA. Samples were afterwards normalized to 50 ng/µL.
(§4) Normalized samples were then used for one-step reverse transcription and real-time PCR amplification using the QuantiTect SYBR green qRT-PCR kit (Qiagen, Hilden, Germany) in a CFX Connect Real-Time PCR System (Bio-Rad, Hercules, California, USA). Previously described primer pairs ACrnaF/ACrnaR and rpsL-1/rpsL-2 were used for the amplification of ampC and housekeeping gene rpsL, respectively. The mean values of relative mRNA expression (2^−ΔΔCt) obtained from at least two independent biological replicates and duplicate technical replicates were considered.

[2] = system: ampC mRNA in 103-H8 (AmpC E247K; PDC-221, CAZ/AVI-resistant ST175 clinical isolate); experiment: qRT-PCR quantification of AmpC induction; assay type: cell-based, P. aeruginosa; conditions: IPM 8, FOX 64, AVI 16 µg/mL, relative to strain basal t=0
Experimental: as §3, §4

[3] = system: ampC mRNA in 109-E9 (CAZ/AVI-sensitive ST175 clinical isolate); experiment: qRT-PCR quantification of AmpC induction; assay type: cell-based, P. aeruginosa; conditions: IPM 8, FOX 64, AVI 16 µg/mL, relative to strain basal t=0
Experimental: as §3, §4

[4] = system: ampC mRNA in 110-G8 (AmpC DelG229–E247; PDC-223, CAZ/AVI-resistant ST175 clinical isolate); experiment: qRT-PCR quantification of AmpC induction; assay type: cell-based, P. aeruginosa; conditions: IPM 8, FOX 64, AVI 16 µg/mL, relative to strain basal t=0
Experimental: as §3, §4

[5] = system: ampC mRNA in wild-type PAO1; experiment: qRT-PCR quantification of AmpC induction; assay type: cell-based, P. aeruginosa; conditions: IPM 8, FOX 64, AVI 16 µg/mL, relative to strain basal t=0
Experimental: as §3, §4

For `NC(=O)[C@@H]1CC[C@@H]2CN1C(=O)N2OS(=O)(=O)O` [Avibactam], the inhibition at 4 µg/mL (PBP4) was no more than 68%, the inhibition at 4 µg/mL (PBP5/6) was no more than 82% and the “Relative ampC expression” value ([1]; 101-E5, 0 min) was 1.2. For the same molecule, the “Relative ampC expression” value ([1]; 101-E5, 30 min) was 0.5, the “Relative ampC expression” value ([1]; 101-E5, 180 min) was 3.1 and the “Relative ampC expression” value ([2]; 103-H8, 0 min) was 1.4. The “Relative ampC expression” value ([2]; 103-H8, 30 min) was 2.1, the “Relative ampC expression” value ([2]; 103-H8, 180 min) was 6.9 and the “Relative ampC expression” value ([3]; 109-E9, 0 min) was 0.9. The “Relative ampC expression” value ([3]; 109-E9, 30 min) was 1.5, the “Relative ampC expression” value ([3]; 109-E9, 180 min) was 6.2 and the “Relative ampC expression” value ([4]; 110-G8, 0 min) was 3.3. The “Relative ampC expression” value ([4]; 110-G8, 30 min) was 2.6, the “Relative ampC expression” value ([4]; 110-G8, 180 min) was 8.7 and the “Relative ampC expression” value ([5]; PAO1, 0 min) was 1.1. For the same molecule, the “Relative ampC expression” value ([5]; PAO1, 30 min) was 5.8, the “Relative ampC expression” value ([5]; PAO1, 180 min) was 60.6 ± 25.2 and the “Relative ampC expression” value ([5]; PAO1, 180 min, listed as AVI) was 60.6.
